The source of these data is patent US10479819B2 (priority 2014, dated 2019).

Molecules are shown by their SMILES. Read-outs that look alike come from different tables or passages of the source. Starred links: 1 amine or outer side, 2 acyl side, 3 side chain; linkers in the order of their positions; H or OH if unused. Non-standard residues stand in square brackets, D forms with d. Residues, ends and D or L forms follow the SMILES beside them. Groups on a side chain read outwards from the residue. *: point of attachment. C18 diacid = O=C(O)CCCCCCCCCCCCCCCCC(=O)*; γGlu = O=C(O)[C@H](CCC(=O)[*:2])N[*:1]; PEG2 = NCCOCCOCCC(=O)O

One data set relates to DIO mice. Put plainly: Body weight reduction in DIO (obese) mice. It is filed as in vivo. Particulars: 250 μg/kg SC daily, day 11 to day 30, DIO mice; for body weight compared with normal saline group: P<0.05. From the text:
Forty 25-week-old DIO mice (Nanjing University model animal research center) were randomly divided into five groups (compound 4, 5, 6, 7, and normal saline group), 8 in each group, having no difference in the basis weight of each group.

Data set [1] in a line: Pharmacokinetic analysis after IV or SC administration in male CD1 mice. As to conditions: for Tmax / half-life: iv. The procedure:
Pharmacokinetic parameters of the drugs were calculated by methods of model dependence (for data obtained from IV) and model independence (data obtained from SC).

Another data set relates to male C57B1/6J mice. As to the kind of experiment: Oral glucose tolerance test in male C57B1/6J mice. It is filed as in vivo. Particulars: 250 μg/kg; for AUC of blood glucose in all four OGTT curve periods (0-480 min) compared with carrier (PBS): P<0.05; for effect on oral glucose tolerance: male C57B1/6J mice. The procedure:
12-16 week-old male C57B1/6J mice (Nanjing University model animal research center) were randomly divided into groups 8 in each group, according to similar blood glucose (assessed by the blood samples obtained from the tail tip). After fasting (for 6 hours), the animals were administrated, and about 4 hours later, initial blood samples (fasting blood glucose level) were taken. Subsequently, the animals were administrated with an oral dose of glucose, and then put back into their cages (t=0). Blood glucose was measured at t=15 minutes, t=30 minutes, t=60 minutes, t=90 minutes and t=120 minutes. And then the animals were administrated with an oral dose of glucose again, and blood glucose was tracked until 8 hours.

For a further data set, the target named is T1, human GLP-1R (Homo sapiens, UniProt P43220).
T1 construct: expressed in transfected cells
T1 sequence (P43220 24-463): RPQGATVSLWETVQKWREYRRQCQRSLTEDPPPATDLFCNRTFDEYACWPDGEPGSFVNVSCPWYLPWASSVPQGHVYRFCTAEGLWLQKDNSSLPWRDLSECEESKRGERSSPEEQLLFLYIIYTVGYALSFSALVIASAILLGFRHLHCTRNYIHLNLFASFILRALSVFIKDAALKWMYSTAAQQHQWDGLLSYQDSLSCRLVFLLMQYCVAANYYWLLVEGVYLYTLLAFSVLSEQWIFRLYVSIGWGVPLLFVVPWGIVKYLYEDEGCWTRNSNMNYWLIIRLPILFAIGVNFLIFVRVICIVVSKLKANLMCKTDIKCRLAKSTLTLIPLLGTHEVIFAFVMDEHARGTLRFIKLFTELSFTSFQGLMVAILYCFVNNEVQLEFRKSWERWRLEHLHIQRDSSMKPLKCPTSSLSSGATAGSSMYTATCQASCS
Put plainly: In vitro activity on GLP-1R, CRE-luciferase HEK-293 cells. As to conditions: for GLP-1R/GCGR: ratio of EC50 GLP-1R to EC50 GCGR. It is filed as cell-based. The procedure: (§1) 5000 of HEK-293 cells, which are used in CRE-luciferase system and express human GCGR or GLP-1R stably, were inoculated into 384 well plates according to […] DMEM/10% FBS media/well. […] After incubation, […] of luciferase reagent was added directly to each plate and mixed gently for 2 minutes. The plates were placed into an Elmer Perkin plate reader for reading. Concentration curve of the compound was made by drawing software Prism 5, and the EC50 value was calculated.

A further data set has as its target T2, human GCGR (Homo sapiens, UniProt P47871).
T2 construct: expressed in transfected cells
As to the kind of experiment: In vitro activity on GCGR, CRE-luciferase HEK-293 cells. It counts as cell-based. Particulars: read-out: GCGR (EC50). The procedure:
as §1

T2 sequence (P47871 26-477): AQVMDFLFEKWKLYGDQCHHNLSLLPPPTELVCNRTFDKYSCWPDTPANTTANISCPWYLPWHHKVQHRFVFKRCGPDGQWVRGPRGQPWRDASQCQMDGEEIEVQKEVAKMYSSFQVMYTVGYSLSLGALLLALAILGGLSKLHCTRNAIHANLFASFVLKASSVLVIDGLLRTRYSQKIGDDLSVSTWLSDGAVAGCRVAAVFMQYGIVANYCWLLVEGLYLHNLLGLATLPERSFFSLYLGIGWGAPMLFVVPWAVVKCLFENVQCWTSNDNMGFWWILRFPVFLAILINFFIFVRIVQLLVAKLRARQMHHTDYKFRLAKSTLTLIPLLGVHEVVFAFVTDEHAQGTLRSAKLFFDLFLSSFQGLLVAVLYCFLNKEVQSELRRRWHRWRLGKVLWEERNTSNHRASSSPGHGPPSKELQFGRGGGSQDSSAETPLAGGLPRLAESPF

A word on the Tmax: it is the time at which the peak concentration occurs. In general, half-life refers to the time in which the quantity being followed falls by half. High values mean slow loss, low ones fast loss. As a reminder, the EC50 is the midpoint of the concentration-response curve. Turning to `CC[C@H](C)[C@H](NC(=O)[C@H](Cc1ccccc1)NC(=O)[C@H](CCC(=O)O)NC(=O)[C@H](CCCCNC(=O)CCOCCOCCNC(=O)CCOCCOCCNC(=O)CC[C@H](NC(=O)CCCCCCCCCCCCCCCCC(=O)O)C(=O)O)NC(=O)[C@H](C)NC(=O)[C@H](C)NC(=O)[C@H](CCCCN)NC(=O)[C@H](CCC(=O)O)NC(=O)[C@H](CC(=O)O)NC(=O)[C@H](CC(C)C)NC(=O)[C@H](Cc1ccc(O)cc1)NC(=O)[C@H](CCCCN)NC(=O)[C@H](CO)NC(=O)[C@H](Cc1ccc(O)cc1)NC(=O)[C@H](CC(=O)O)NC(=O)[C@H](CO)NC(=O)[C@@H](NC(=O)[C@H](Cc1ccccc1)NC(=O)[C@@H](NC(=O)CNC(=O)[C@H](CCC(N)=O)NC(=O)[C@@H](CO)NC(=O)[C@@H](N)Cc1c[nH]cn1)[C@@H](C)O)[C@@H](C)O)C(=O)N[C@@H](CCC(=O)O)C(=O)N[C@@H](Cc1c[nH]c2ccccc12)C(=O)N[C@@H](CC(C)C)C(=O)N[C@@H](CC(C)C)C(=O)N[C@@H](CC(N)=O)C(=O)NCC(=O)NCC(=O)N1CCC[C@H]1C(=O)N[C@@H](CO)C(=O)N[C@@H](CO)C(=O)NCC(=O)N[C@@H](C)C(=O)N1CCC[C@H]1C(=O)N1CCC[C@H]1C(=O)N1CCC[C@H]1C(=O)N[C@@H](CO)C(N)=O` [Compound 4] (H-H[dS]QGTFTSDYSKYLDEKAAK([PEG2-PEG2-γGlu-C18 diacid])EFIEWLLNGGPSSGAPPPS-NH2), in the data set with DIO mice, the weight loss result is recorded as “about 20%” and the “body weight compared with normal saline group” value is on record as “significantly lower”. Moreover, the clinical adverse effect result in data set [1] (IV or SC route, male CD1 mice) is reported as “no clinical adverse effect”. For the same compound, in data set [1] (mouse, in vivo), the Tmax is about 12 h and the half-life fell in the range of 4 to 6 h. For the same compound, in the data set with male C57B1/6J mice, the “AUC of blood glucose in all four OGTT curve periods (0-480 min) compared with carrier (PBS)” value is “significantly decreased” and the “effect on oral glucose tolerance” value is reported as “significantly reduced the oral glucose tolerance”. Also, on human GLP-1R, the EC50 amounted to 0.13 nM and the GLP-1R/GCGR was 0.3.
`CSCC[C@H](NC(=O)[C@H](CC(C)C)NC(=O)[C@H](Cc1c[nH]c2ccccc12)NC(=O)[C@H](CCC(N)=O)NC(=O)[C@@H](NC(=O)[C@H](Cc1ccccc1)NC(=O)[C@H](CC(=O)O)NC(=O)[C@H](CCC(N)=O)NC(=O)[C@H](C)NC(=O)[C@H](CCCNC(=N)N)NC(=O)[C@H](CCCNC(=N)N)NC(=O)C(C)(C)NC(=O)[C@H](CC(=O)O)NC(=O)[C@H](CC(C)C)NC(=O)[C@H](Cc1ccc(O)cc1)NC(=O)[C@H](CCCCN)NC(=O)[C@H](CO)NC(=O)[C@H](CCCCNC(=O)CCOCCOCCNC(=O)CCOCCOCCNC(=O)CCCCCCCCCCCCCCCCC(=O)O)NC(=O)[C@H](CC(=O)O)NC(=O)[C@H](CO)NC(=O)[C@@H](NC(=O)[C@H](Cc1ccccc1)NC(=O)[C@@H](NC(=O)CNC(=O)[C@H](CCC(N)=O)NC(=O)[C@@H](CO)NC(=O)[C@@H](N)Cc1c[nH]cn1)[C@@H](C)O)[C@@H](C)O)C(C)C)C(=O)N[C@@H](CC(N)=O)C(=O)N[C@H](C(=O)NCC(=O)NCC(=O)N1CCC[C@H]1C(=O)N[C@@H](CO)C(=O)N[C@@H](CO)C(=O)NCC(=O)N[C@@H](C)C(=O)N1CCC[C@H]1C(=O)N1CCC[C@H]1C(=O)N1CCC[C@H]1C(=O)N[C@@H](CO)C(N)=O)[C@@H](C)O` [Compound 6]: in the data set on DIO mice, the weight loss entry is recorded as “about 20%” and the “body weight compared with normal saline group” value is recorded as “significantly lower”. Further, in data set [1] (mouse, in vivo), the clinical adverse effect result is “no clinical adverse effect”, the time of peak concentration (Tmax) was about 12 h and the half-life fell in the range of 4 to 6 h. The peak time entry in data set [1] (mouse, in vivo, sc) is reported as “more than 12 hours”. In the data set with male C57B1/6J mice, the “AUC of blood glucose in all four OGTT curve periods (0-480 min) compared with carrier (PBS)” value is given as “significantly decreased” and the “effect on oral glucose tolerance” value was “significantly reduced the oral glucose tolerance”. In addition, at human GLP-1R, the GLP-1R/GCGR is given as 0.3.
Turning to `CSCC[C@H](NC(=O)[C@H](CC(C)C)NC(=O)[C@H](Cc1c[nH]c2ccccc12)NC(=O)[C@H](CCC(N)=O)NC(=O)[C@@H](NC(=O)[C@H](Cc1ccccc1)NC(=O)[C@H](CC(=O)O)NC(=O)[C@H](CCC(N)=O)NC(=O)[C@H](C)NC(=O)[C@H](CCCNC(=N)N)NC(=O)[C@H](CCCNC(=N)N)NC(=O)C(C)(C)NC(=O)[C@H](CC(=O)O)NC(=O)[C@H](CC(C)C)NC(=O)[C@H](Cc1ccc(O)cc1)NC(=O)[C@H](CCCCN)NC(=O)[C@H](CO)NC(=O)[C@H](CCCCNC(=O)CCOCCOCCNC(=O)CCOCCOCCNC(=O)CC[C@H](NC(=O)CCCCCCCCCCCCCCCCC(=O)O)C(=O)O)NC(=O)[C@H](CC(=O)O)NC(=O)[C@H](CO)NC(=O)[C@@H](NC(=O)[C@H](Cc1ccccc1)NC(=O)[C@@H](NC(=O)CNC(=O)[C@H](CCC(N)=O)NC(=O)[C@@H](CO)NC(=O)[C@@H](N)Cc1c[nH]cn1)[C@@H](C)O)[C@@H](C)O)C(C)C)C(=O)N[C@@H](CC(N)=O)C(=O)N[C@H](C(=O)NCC(=O)NCC(=O)N1CCC[C@H]1C(=O)N[C@@H](CO)C(=O)N[C@@H](CO)C(=O)NCC(=O)N[C@@H](C)C(=O)N1CCC[C@H]1C(=O)N1CCC[C@H]1C(=O)N1CCC[C@H]1C(=O)N[C@@H](CO)C(N)=O)[C@@H](C)O` [Compound 8], the EC50 at human GCGR came to 0.18 nM. Besides, the GLP-1R/GCGR at human GLP-1R stood at 1.1.
In the same order, the values of `CSCC[C@H](NC(=O)[C@H](CC(C)C)NC(=O)[C@H](Cc1c[nH]c2ccccc12)NC(=O)[C@H](CCC(N)=O)NC(=O)[C@@H](NC(=O)[C@H](Cc1ccccc1)NC(=O)[C@H](CC(=O)O)NC(=O)[C@H](CCC(N)=O)NC(=O)[C@H](C)NC(=O)[C@H](CCCNC(=N)N)NC(=O)[C@H](CCCNC(=N)N)NC(=O)[C@H](CCCCNC(=O)CCOCCOCCNC(=O)CCOCCOCCNC(=O)CCCCCCCCCCCCCCCCC(=O)O)NC(=O)[C@H](CC(=O)O)NC(=O)[C@H](CC(C)C)NC(=O)[C@H](Cc1ccc(O)cc1)NC(=O)[C@H](CCCCN)NC(=O)[C@H](CO)NC(=O)[C@H](Cc1ccc(O)cc1)NC(=O)[C@H](CC(=O)O)NC(=O)[C@H](CO)NC(=O)[C@@H](NC(=O)[C@H](Cc1ccccc1)NC(=O)[C@@H](NC(=O)CNC(=O)[C@H](CCC(N)=O)NC(=O)[C@@H](CO)NC(=O)[C@@H](N)Cc1c[nH]cn1)[C@@H](C)O)[C@@H](C)O)C(C)C)C(=O)N[C@@H](CC(N)=O)C(=O)N[C@H](C(=O)NCC(=O)NCC(=O)N1CCC[C@H]1C(=O)N[C@@H](CO)C(=O)N[C@@H](CO)C(=O)NCC(=O)N[C@@H](C)C(=O)N1CCC[C@H]1C(=O)N1CCC[C@H]1C(=O)N1CCC[C@H]1C(=O)N[C@@H](CO)C(N)=O)[C@@H](C)O` [Compound 9] are 0.18 nM and 2.9.
Consider `CSCC[C@H](NC(=O)[C@H](CC(C)C)NC(=O)[C@H](Cc1c[nH]c2ccccc12)NC(=O)[C@H](CCC(N)=O)NC(=O)[C@@H](NC(=O)[C@H](Cc1ccccc1)NC(=O)[C@H](CC(=O)O)NC(=O)[C@H](CCC(N)=O)NC(=O)[C@H](C)NC(=O)[C@H](CCCNC(=N)N)NC(=O)[C@H](CCCNC(=N)N)NC(=O)[C@H](CCCCNC(=O)CCOCCOCCNC(=O)CCOCCOCCNC(=O)CC[C@H](NC(=O)CCCCCCCCCCCCCCCCC(=O)O)C(=O)O)NC(=O)[C@H](CC(=O)O)NC(=O)[C@H](CC(C)C)NC(=O)[C@H](Cc1ccc(O)cc1)NC(=O)[C@H](CCCCN)NC(=O)[C@H](CO)NC(=O)[C@H](Cc1ccc(O)cc1)NC(=O)[C@H](CC(=O)O)NC(=O)[C@H](CO)NC(=O)[C@@H](NC(=O)[C@H](Cc1ccccc1)NC(=O)[C@@H](NC(=O)CNC(=O)[C@H](CCC(N)=O)NC(=O)[C@@H](CO)NC(=O)[C@@H](N)Cc1c[nH]cn1)[C@@H](C)O)[C@@H](C)O)C(C)C)C(=O)N[C@@H](CC(N)=O)C(=O)N[C@H](C(=O)NCC(=O)NCC(=O)N1CCC[C@H]1C(=O)N[C@@H](CO)C(=O)N[C@@H](CO)C(=O)NCC(=O)N[C@@H](C)C(=O)N1CCC[C@H]1C(=O)N1CCC[C@H]1C(=O)N1CCC[C@H]1C(=O)N[C@@H](CO)C(N)=O)[C@@H](C)O` [Compound 11], for which the EC50 on human GCGR was found to be 0.18 nM; on human GLP-1R (read-out: GLP-1R (EC50)) it was 0.15 nM. Also, the GLP-1R/GCGR at human GLP-1R is listed as 0.8.
